This note sets out measurements from ChEMBL document CHEMBL5385901, “Drug repurposing of propafenone to discover novel anti-tumor agents by impairing homologous recombination to delay DNA damage recovery of rare disease conjunctival melanoma” (Eur J Med Chem, 2023).

Calls of active or inactive are those of the source. No cut-off for these calls is given here.

A word on the IC50: it is the concentration that gives 50% inhibition. Broadly, the inhibition is the percentage by which the read-out fell short of the control.

In data set [1] the test system is CRMM-1. The data set can be described thus: Induction of apoptosis in human CRMM-1 cells at 40 uM measured after 48 hrs by DAPI/Annexin-V-PE staining based flow cytometry relative to control. In kind it is functional. In general terms: Flow cytometry measures light scatter and fluorescence of single cells or particles in a stream.
The nature of data set [2]: Antiproliferative activity against human CM-AS16 cells assessed as cell growth inhibition incubated for 72 hrs by CCK8 assay. The format is functional, cell-based. Particulars: CM-AS16, 72 h. In general terms: Formazan colour is commonly taken as a measure of viable cells.
Data set [3] has as its system CRMM-1. The data set can be described thus: Cytotoxicity against human CRMM-1 cells assessed as cell growth inhibition incubated for 72 hrs by CCK8 assay. Particulars: CRMM-1, 72 h. The format is functional, cell-based.
A short description of data set [4]: Antiproliferative activity against human HL7702 cells assessed as cell growth inhibition incubated for 72 hrs by CCK8 assay. In kind it is toxicity, cell-based. Particulars: HL7702 (L02) cells.
For data set [5], the system named is CM-AS16. Description: Effect on DNA integrity checkpoint genes in human CM-AS16 cells harboring BRAF mutation at 20 uM by GO enrichment analysis. In kind it is functional, cell-based.
Data set [6] has as its system CRMM-2. The data set can be described thus: Antiproliferative activity against human CRMM-2 cells assessed as cell growth inhibition incubated for 72 hrs by CCK8 assay. The format is functional, cell-based. The note with it: CRMM-2, 72 h.
For data set [7], the system named is CRMM-2. The data set can be described thus: Cytotoxicity against human CRMM-2 cells assessed as cell growth inhibition incubated for 72 hrs by CCK8 assay. The format is functional, cell-based. The note with it: CRMM-2, 72 h.
The nature of data set [8]: Antiproliferative activity against human PIG1 cells assessed as cell growth inhibition incubated for 72 hrs by CCK8 assay. The format is toxicity, cell-based.
A short description of data set [9]: Cytotoxicity against human PIG1 cells at 20 uM incubated for 72 hrs by CCK8 assay relative to control. Particulars: read-out: INH. The format is toxicity, cell-based.
The test system of data set [10] is CRMM-1. The data set can be described thus: Antiproliferative activity against human CRMM-1 cells assessed as cell growth inhibition incubated for 72 hrs by CCK8 assay. Particulars: CRMM-1, 72 h. The format is functional, cell-based.
Data set [11] is described as follows: Cytotoxicity against human CM-AS16 cells assessed as cell growth inhibition incubated for 72 hrs by CCK8 assay. In kind it is functional, cell-based. The note with it: CM-AS16, 72 h.
The test system of data set [12] is CRMM-1. The data set can be described thus: Inhibition of cell migration in human CRMM-1 cells assessed as migration rate at 3 uM measured after 72 hrs by wound healing assay (reference value: 70 %). In kind it is functional. On the set-up: scale not given: the % may be the effect or the level left.
Data set [13] can be described thus: Inhibition of homologous recombination in human CRMM-1 cells at 10 uM incubated for 12 hrs by real-time PCR analysis relative to control. In kind it is functional. For orientation: Real-time PCR tracks product formation cycle by cycle.
Data set [14] is described as follows: Cytotoxicity against human CM2005.1 cells assessed as cell growth inhibition incubated for 72 hrs by CCK8 assay. The format is functional, cell-based. Particulars: CM2005.1, 72 h.
The test system of data set [15] is CRMM-1. Description: Induction of apoptosis in human CRMM-1 cells at 0.3 to 3 uM measured after 48 hrs by DAPI/Annexin-V-PE staining based flow cytometry. The note with it: dose 0.3-3 µM. In kind it is functional, cell-based.
Data set [16] can be described thus: Antiproliferative activity against human CM2005.1 cells assessed as cell growth inhibition incubated for 72 hrs by CCK8 assay. In kind it is functional, cell-based. Particulars: CM2005.1, 72 h.
The test system of data set [17] is CM-AS16. Description: Effect on Fanconi anemia pathway in human CM-AS16 cells harboring BRAF mutation at 20 uM by KEGG analysis. In kind it is functional, cell-based.
Data set [18] concerns CM-AS16. Description: Effect on DNA repair genes in human CM-AS16 cells harboring BRAF mutation at 20 uM by GO enrichment analysis. The format is functional, cell-based.
The nature of data set [19]: Toxicity in immunodeficient NCG mouse xenografted with human CRMM-1 cells assessed as change in serum CREA level at 10 to 20 mg/kg, ip for 28 days administered five times per week. In kind it is organism-based. The note with it: in vivo, 672 h, dose 10-20 mg/kg, time 28 day.
A short description of data set [20]: Toxicity in immunodeficient NCG mouse xenografted with human CRMM-1 cells assessed as change in serum AST level at 10 to 20 mg/kg, ip for 28 days administered five times per week. In kind it is organism-based. The note with it: in vivo, 672 h, dose 10-20 mg/kg, time 28 day.
The nature of data set [21]: Toxicity in immunodeficient NCG mouse xenografted with human CRMM-1 cells assessed as change in serum urea level at 10 to 20 mg/kg, ip for 28 days administered five times per week. The format is organism-based. The note with it: in vivo, 672 h, dose 10-20 mg/kg, time 28 day.
Data set [22] deals with CRMM-1. Description: Antitumor activity against human CRMM-1 cells xenografted in immunodeficient NCG mouse assessed as mean tumor volume at 10 mg/kg, ip for 28 days administered five times per week (reference value: 540 mm3). The note with it: time 28 day. The format is functional.
Data set [23] in a line: Toxicity in immunodeficient NCG mouse xenografted with human CRMM-1 cells assessed as pathomorphological change in liver at 10 to 20 mg/kg, ip for 28 days administered five times per week by H and E staining based analysis. In kind it is organism-based. Particulars: in vivo, 672 h, dose 10-20 mg/kg, time 28 day.
A short description of data set [24]: Toxicity in immunodeficient NCG mouse xenografted with human CRMM-1 cells assessed as body weight loss at 10 to 20 mg/kg, ip for 28 days administered five times per week. In kind it is organism-based. Particulars: in vivo, 672 h, dose 10-20 mg/kg, time 28 day.
Data set [25] can be described thus: Toxicity in immunodeficient NCG mouse xenografted with human CRMM-1 cells assessed as change in serum ALT level at 10 to 20 mg/kg, ip for 28 days administered five times per week. The format is organism-based. Particulars: in vivo, 672 h, dose 10-20 mg/kg, time 28 day.
Data set [26] in a line: Toxicity in immunodeficient NCG mouse xenografted with human CRMM-1 cells assessed as pathomorphological change in kidney at 10 to 20 mg/kg, ip for 28 days administered five times per week by H and E staining based analysis. In kind it is organism-based. Particulars: in vivo, 672 h, dose 10-20 mg/kg, time 28 day.
Data set [27] relates to CRMM-1. The data set can be described thus: Antitumor activity against human CRMM-1 cells xenografted in immunodeficient NCG mouse assessed as tumor growth suppression at 10 mg/kg, ip for 28 days administered five times per week relative to control. In kind it is functional. The note with it: time 28 day.
Data set [28] relates to CRMM-1. Description: Antitumor activity against human CRMM-1 cells xenografted in immunodeficient NCG mouse assessed as tumor growth suppression at 20 mg/kg, ip for 28 days administered five times per week relative to control. In kind it is functional. Particulars: time 28 day.
Data set [29] has as its system CRMM-1. The data set can be described thus: Antitumor activity against human CRMM-1 cells xenografted in immunodeficient NCG mouse assessed as mean tumor volume at 20 mg/kg, ip for 28 days administered five times per week (reference value: 540 mm3). The format is functional. The note with it: time 28 day.

Take `CCCNCC(O)COc1ccccc1C(=O)CCc1ccccc1` (centres undefined) [PROPAFENONE]: the Activity is listed as 80% in the data set on CRMM-1 [1] and 58% in the data set on CRMM-1 [12]. Moreover, the half-inhibitory concentration (IC50) in data set [2] was 13.7 µM; with CRMM-1 [3], 24.7 µM; in the data set with CRMM-2 [6], 13.4 µM; in the data set with CRMM-2 [7] it was 13.4 µM; in the data set with CRMM-1 [10], 24.7 µM; in [11], 13.7 µM. For the same compound, the half-inhibitory concentration (IC50) in data set [14] and in data set [16] was 48.3 µM each time. Besides, the figures for the IC50 at 72 h in [4] and in data set [8] were 48.2 µM and 56 µM, respectively. In addition, the result in the data set on CM-AS16 [5], in the data set on CRMM-1 [15], in the data set with CM-AS16 [17] and in the data set on CM-AS16 [18] was Active. The cytotoxicity at 72 h, 20 µM in data set [9] stood at 26%. Also, in [13], the inhibition at 10 µM was 56.9%.

For the compound `Cl.Cl.O=C(CCCc1ccccc1)c1c(OCCCN2CCNCC2)ccc2ccccc12`, the Activity entry in data set [19] is “Non-Toxic”; in data set [20], “Non-Toxic”; in data set [21], “Non-Toxic”; with CRMM-1 [22], 390 mm3; in data set [23], “Non-Toxic”; in [24], “Non-Toxic”. Further, the Activity result in [25] is reported as “Non-Toxic”; in [26], “Non-Toxic”; in the data set on CRMM-1 [27], 21%; in the data set with CRMM-1 [28] it was 33%; with CRMM-1 [29], 340 mm3.
